Data reported in patent US11571407B2, “Bicalutamide analogs or (S)-bicalutamide as exocytosis activating compounds for use in the treatment of a lysosomal storage disorder or glycogenosis” (BCN PEPTIDES, S.A., priority 2013, dated 2023).
Marks after values point to notes of the source that are not given here.

Experiments:
[1] = tested on: fibroblasts from patients affected by different lysosomal storage diseases; test: Cell viability, MTT assay; assay type: cell-based, human; parameters: key to Decrease of Cell Viability (%): N.S.: non significant decrease; settings: for Decrease of Cell Viability (%): 72 h
Method: Fibroblasts from thirteen patients affected by seven different lysosomal storage diseases (Fabry, Gaucher, Hurler, Niemann-Pick type A/B, Sanfilippo A, Sanfilippo B and Tay-Sachs) were cultured in DMEM (Dulbecco's modified Eagles medium) with 10% fetal bovine serum and in the presence of antibiotics (penicillin and streptomycin), at 37° C. with 5% CO2. All reagents were purchased from PAA Laboratories (Velizy-Villacoublay, France). The fibroblasts of the patients were selected on the basis of availability of fibroblasts and measurable residual activity. The use of human samples was approved by the Ethical Committee of Hospital Clinic, Barcelona
Fibroblasts of early passage (between 5 and 9 passages) were plated in 6- or 24-well plates depending on the test and were treated for 72 hours with increasing concentrations (10 nmol/L, 100 nmol/L, 1 μmol/L, 10 μmol/L, 50 μmol/L and 100 μmol/L) of bicalutamide (Sigma-Aldrich, St. Louis, USA) and (R)- and (S)-bicalutamide (Toronto Research Chemicals Inc., Toronto (Ontario), Canada). Cell viability was evaluated in each cell line for each concentration using the 3-[4,5-dimethylthiazol-2-yl]-2,5-diphenyl tetrazolium bromide (MTT) assay (Sigma-aldrich, St. Louis, USA) described by Sumantran V. N. Cellular chemosensitivity assays: an overview. Methods Mol. Biol. (2011), 731, 219-236.
Fibroblasts from thirteen patients with different lysosomal storage diseases (four patients affected by Sanfilippo B disease patients with different genotypes, three Sanfilippo A disease patients with different genotypes, two Tay-Sachs disease patients with the same genotype, one Gaucher disease patient, one Niemann-PickA/B disease patient, one Hurler disease patient and one Fabry disease patient) were independently treated with different concentrations of (R)- and (S)-bicalutamide (50 and 100 μM). Cell viability was evaluated for each treatment in each cell line using the MTT assay.

[2] = cited from earlier work
[3] = Table 3 patient 1, Sanfilippo B fibroblasts, 50 μM
[4] = Table 3 patient 1, Sanfilippo B fibroblasts, 100 μM
[5] = Table 3 patient 2, Sanfilippo B fibroblasts, 50 μM
[6] = Table 3 patient 2, Sanfilippo B fibroblasts, 100 μM
[7] = Table 3 patient 3, Sanfilippo B fibroblasts, 50 μM
[8] = Table 3 patient 3, Sanfilippo B fibroblasts, 100 μM
[9] = Table 3 patient 4, Sanfilippo B fibroblasts, 50 μM
[10] = Table 3 patient 4, Sanfilippo B fibroblasts, 100 μM
[11] = Table 3 patient 5, Sanfilippo A fibroblasts, 50 μM
[12] = Table 3 patient 5, Sanfilippo A fibroblasts, 100 μM
[13] = Table 3 patient 6, Sanfilippo A fibroblasts, 50 μM
[14] = Table 3 patient 6, Sanfilippo A fibroblasts, 100 μM
[15] = Table 3 patient 7, Sanfilippo A fibroblasts, 50 μM
[16] = Table 3 patient 7, Sanfilippo A fibroblasts, 100 μM
[17] = Table 3 patient 8, Tay-Sachs fibroblasts, 50 μM
[18] = Table 3 patient 8, Tay-Sachs fibroblasts, 100 μM
[19] = Table 3 patient 9, Tay-Sachs fibroblasts, 50 μM
[20] = Table 3 patient 9, Tay-Sachs fibroblasts, 100 μM
[21] = Table 3 patient 10, Gaucher fibroblasts, 50 μM
[22] = Table 3 patient 10, Gaucher fibroblasts, 100 μM
[23] = Table 3 patient 11, Niemann-Pick AB fibroblasts, 50 μM
[24] = Table 3 patient 11, Niemann-Pick AB fibroblasts, 100 μM
[25] = Table 3 patient 12, Hurler fibroblasts, 50 μM
[26] = Table 3 patient 12, Hurler fibroblasts, 100 μM
[27] = Table 3 patient 13, Fabry fibroblasts, 50 μM
[28] = Table 3 patient 13, Fabry fibroblasts, 100 μM

| SMILES | Decrease of Cell Viability (%) [1, 3] | Decrease of Cell Viability (%) [1, 4] | Decrease of Cell Viability (%) [1, 5] | Decrease of Cell Viability (%) [1, 6] | Decrease of Cell Viability (%) [1, 7] | Decrease of Cell Viability (%) [1, 8] | Decrease of Cell Viability (%) [1, 9] | Decrease of Cell Viability (%) [1, 10] | Decrease of Cell Viability (%) [1, 11] | Decrease of Cell Viability (%) [1, 12] | Decrease of Cell Viability (%) [1, 13] | Decrease of Cell Viability (%) [1, 14] | Decrease of Cell Viability (%) [1, 15] | Decrease of Cell Viability (%) [1, 16] | Decrease of Cell Viability (%) [1, 17] | Decrease of Cell Viability (%) [1, 18] | Decrease of Cell Viability (%) [1, 19] | Decrease of Cell Viability (%) [1, 20] | Decrease of Cell Viability (%) [1, 21] | Decrease of Cell Viability (%) [1, 22] | further results |
| --- | --- | --- | --- | --- | --- | --- | --- | --- | --- | --- | --- | --- | --- | --- | --- | --- | --- | --- | --- | --- | --- |
| C[C@@](O)(CS(=O)(=O)c1ccc(F)cc1)C(=O)Nc1ccc(C#N)c(C(F)(F)F)c1 [(S)-BICALUTAMIDE (1), (2S)-N-[4-cyano-3-(trifluoromethyl)phenyl]-3-[(4-fluorophenyl)sulfonyl]-2-hydroxy-2-methylpropanamide] | 0% | 0% | 0% | 0% | 0% | 0% | 0% | N.S. | 0% | 0% | 0% | 0% | 0% | 0% | 0% | 0% | 0% | N.S. | N.S. | N.S. | Decrease of Cell Viability (%) [1, 23]: N.S.; Decrease of Cell Viability (%) [1, 24]: N.S.; Decrease of Cell Viability (%) [1, 25]: 0%; Decrease of Cell Viability (%) [1, 26]: 0%; Decrease of Cell Viability (%) [1, 27]: 0%; Decrease of Cell Viability (%) [1, 28]: 0%; decrease of cell viability (in words) ([1]; thirteen fibroblast cultures, 50 and 100 μM): did not show any significant decrease of cell viability |
| C[C@@](O)(CS(=O)(=O)c1ccc(F)cc1)C(=O)Nc1ccc(C#N)c(C(F)(F)F)c1 (single isomer, unassigned) [(R)-BICALUTAMIDE (2)] | 20* % | 37* % | 10* % | 26* % | 40* % | 52* % | 0% | 25* % | N.S. | N.S. | 0% | 0% | 0% | 0% | 0% | 0% | 0% | N.S. | 0% | 24* % | Decrease of Cell Viability (%) [1, 23]: 0%; Decrease of Cell Viability (%) [1, 24]: 0%; Decrease of Cell Viability (%) [1, 25]: 0%; Decrease of Cell Viability (%) [1, 26]: 0%; Decrease of Cell Viability (%) [1, 27]: 0%; Decrease of Cell Viability (%) [1, 28]: 0%; half life in plasma ([2]; in vivo): 1 week; concentrations in plasma at the steady state relative to (S)-bicalutamide ([2]; steady state, (R)- versus (S)-bicalutamide): 100 times |
